Patent publication US20250185656A1, “PIPERIDINONE DERIVATIVE OR SALT THEREOF, HARMFUL ORGANISM CONTROL AGENT CONTAINING SAID COMPOUND, AND METHOD FOR USING SAME” (ADEKA Corporation, priority 2022, published 2025)

Assays:
[1] = system: Frankliniella occidentalis; test: Insecticidal test against Frankliniella occidentalis; conditions: in Phaseolus vulgaris, 96 h, read-out: corrected mortality, rating of assessment
Source text: Insecticidal Test Against Frankliniella occidentalis
Female adults of Frankliniella occidentalis were inoculated onto Phaseolus vulgaris leaf pieces, and after allowing them to lay eggs for one day, the female adults were removed. […] Four days after the treatment, the number of surviving larvae of this species was examined. […] In duplicate.

[2] = system: L-1 stage larvae of Dirofilaria immitis; test: Evaluation test of influence on the movement of Dirofilaria immitis larvae; conditions: 72 h, read-out: corrected movement inhibition rate
Plutella xylostella = test: Insecticidal test against Plutella xylostella; conditions: in Brassica rapa, 144 h, read-out: corrected mortality, rating of assessment
Source text: Insecticidal Test Against Plutella xylostella
Six days after the immersion in the drug solution, the number of surviving insects was examined. […] In triplicate using 10 per plot.

SMILES	mortality at 500 ppm [1] [%]	inhibition at 50 ppm [2] [%]	mortality at 500 ppm (Plutella xylostella) [%]
CC(C)(C)OC(=O)N1CC(=O)C(C(=O)Nc2ccc(F)cc2)=C(O)C1 [Compound 1-36, tertiary-butyl 4-((4-fluorophenyl)carbamoyl)-5-hydroxy-3-oxo-3,6-dihydropyridine-1 (2H)-carboxylate]	100	≥ 50	100
O=C1CN(c2ncc(Br)cn2)CC(O)=C1C(=O)Nc1ccc(F)cc1 [Compound 1-65, 1-(5-bromopyrimidin-2-yl)-N-(4-fluorophenyl)-5-hydroxy-3-oxo-1,2,3,6-tetrahydropyridine-4-carboxamide]	100	–	100
CC(C)(C)OC(=O)N1CC(=O)C(C(=S)Nc2ccc(Cl)cc2)=C(O)C1 [Compound 2-13, tertiary-butyl 4-((4-chlorophenyl)carbamothioyl)-5-hydroxy-3-oxo-3,6-dihydropyridine-1 (2H)-carboxylate]	–	–	100
N#Cc1ccc(N2CC(O)=C(C(=O)Nc3ccc(F)cc3)C(=O)O2)cc1 [Compound 3-1, 2-(4-cyanophenyl)-N-(4-fluorophenyl)-4-hydroxy-6-oxo-3,6-dihydro-2H-1,2-oxazin-5-carboxamide]	–	–	100
